From paper PMC12383646, “Identification of Two Critical Contact Residues in a Pathogenic Epitope from Tetranectin for Monoclonal Antibody Binding and Preparation of Single-Chain Variable Fragments” (Biomolecules, 2025)

What was measured:
12F1 mAb [1] = assay: Indirect competitive ELISA (ic-ELISA) of P5-5 and mutant peptides against 12F1 mAb; type: binding, mouse; conditions: coating P5-5-OVA 5 μg/mL; free peptide competitor 0.61 ng/mL-20 μg/mL; pre-mixed with 12F1 mAb 37 °C 30 min; compared with WT P5-5 (Figure 5)
Procedure: Indirect competitive ELISA (ic-ELISA): the inhibition ability of 12F1 mAb against P5-5 and its mutants was assessed through icELISA [16]. A coating antigen P5-5-OVA solution at a concentration of 5 μg/mL was prepared and dispensed (100 μL) into each well of a 96-well ELISA plate. The plates were then left to incubate at 4 °C overnight. Following washing, 5% (w/v) PBSM was added to each well and incubated at 37 °C for 2 h. The synthesized peptides of P5-5 and its variants were prepared as 1 mg/mL stock solution (dissolved in 0.01M PBS, pH 7.4). These peptides were then serially diluted in PBSM to concentrations of 20 μg/mL, 10 μg/mL, 5 μg/mL, 2.5 μg/mL, 1.25 μg/mL, 625 ng/mL, 312.5 ng/mL, 156.25 ng/mL, 78.13 ng/mL, 39.06 ng/mL, 19.53 ng/mL, 9.77 ng/mL, 4.88 ng/mL, 2.44 ng/mL, 1.22 ng/mL, and 0.61 ng/mL for the competitor in the ic-ELISA assay. Subsequently, 12F1 mAb was mixed thoroughly with the diluted solutions of P5-5 and its mutants at equal volume at 37 °C for 30 min incubation and reaction. Following this, each well was impressed by 100 μL of the mixture, which was then incubated at 37 °C for one hour. The succeeding stages, which included the addition of HRP-goat anti-mouse serum, TMB substrate solution, and stop solution, were carried out as described earlier. The measurement of the OD value was then taken under 450 nm. The IC50 values of the 12F1 monoclonal antibody against synthesized P5-5 and nine other mutant peptides were determined using the four-parameter logistic equations in Prism 9.0 GraphPad software (version 9.0 GraphPad Software), following the established methodology.

12F1 mAb [2] = assay: Indirect ELISA (iELISA) of 12F1 mAb on coated P5-5-BSA and P5-5 mutant-BSA; type: binding, mouse; conditions: peptide-BSA conjugate coated at 10 µg/mL; 12F1 mAb 1:2000; compared with WT P5-5 and negative control BSA; six repeated experiments (Figure 4)
Procedure: The P5-5 and mutants were conjugated to BSA by the EDC conjugating method. Firstly, the P5-5 and other 9 mutant peptide solutions (4 mg/mL in 0.1 M MES buffer, pH 4.7) were separately mixed with BSA solution (10 mg/mL in 0.1 M MES buffer, pH 4.7). Then, the reaction mixtures were all supplemented with 100 μL of EDC solution (10 mg/mL in deionized water) and incubated at 25 °C for 2 h to facilitate conjugation. The haptens were coupled to BSA at a molar ratio of 10:1 [14]. After a two-hour reaction, the resulting mixtures were subjected to dialysis against 0.01 M phosphate-buffered saline (PBS, pH 7.4) for 48 h. The final products were then stored at −20 °C for the following applications. The P5-5 and mutant conjugates were examined using native gel electrophoresis, and the concentration of the complete antigen was determined using the BCA protein assay kit.
Indirect ELISA (iELISA): To identify the key binding epitopes of the prepared mAb to the P5-5 epitope, P5-5-BSA, and P5-5 mutant-BSA, the antigens were coated onto 96-well plates at a concentration of 10 µg/mL [15]. Subsequently, purified 12F1 mAb diluted at 1:2000 in blocking buffer was added to the wells after blocking and washing. Following another washing step, goat anti-mouse IgG-HRP at a 1:5000 dilution in blocking buffer was added and incubated at 37 °C for 1 h. To commence color development, 100 μL of 3,3,5,5-Tetramethylbenzidine (TMB) solution was added to each well, followed by 100 μL of 2 M H2SO4. The absorbance at 450 nm was measured using a microplate reader.

Row | Sequence | binding activity of 12F1 mAb (indirect ELISA, OD 450 nm) (12F1 mAb [2]) | antigen inhibitory capability / antibody binding in ic-ELISA (12F1 mAb [1])
1 | NDAAYEYLRQ [L4A, P5-5 mutant, position 4 (Leu) mutated to alanine] | significantly reduced to levels similar to the negative control | entirely lost their ability to bind antibodies
2 | NDALYEYARQ [L8A, P5-5 mutant, position 8 (Leu) mutated to alanine] | significantly reduced to levels similar to the negative control | entirely lost their ability to bind antibodies
3 | NDALYAYLRQ [E6A, P5-5 mutant, position 6 (Glu) mutated to alanine] | weak binding signals | significantly reduced compared to the WT P5-5

More lines, main results first:

Row | binding activity of 12F1 mAb (indirect ELISA, OD 450 nm) (12F1 mAb [2]) | Sequence | antigen inhibitory capability / antibody binding in ic-ELISA (12F1 mAb [1])
4 | weak binding signals | NDALAEYLRQ [Y5A, P5-5 mutant, position 5 (Tyr) mutated to alanine] | significantly reduced compared to the WT P5-5
5 | weak binding signals | NAALYEYLRQ [DA2, P5-5 mutant, position 2 (Asp) mutated to alanine] | significantly reduced compared to the WT P5-5
6 | weak binding signals | NDALYEALRQ [Y7A, P5-5 mutant, position 7 (Tyr) mutated to alanine] | significantly reduced compared to the WT P5-5
